In ChEMBL document CHEMBL4118111, “Discovery and optimization of piperazine-1-thiourea-based human phosphoglycerate dehydrogenase inhibitors” (Bioorg Med Chem, 2018):
Blank lines part the entries; values can stand above or below the compound they belong to.

How the values were obtained:
[1] = target: T1, D-3-phosphoglycerate dehydrogenase (Homo sapiens) (UniProt O43175); test: Inhibition of N-terminal His6-tagged human liver PHGDH expressed in Escherichia coli Rosetta (DE3)pLysS at 57 uM using 3-phosphoglycerate as substrate after 20 mins in presence of NAD+ by resazurin fluorescence based PSAT1/diaphorase/PSPH coupled enzyme assay
T1 sequence (whole entry): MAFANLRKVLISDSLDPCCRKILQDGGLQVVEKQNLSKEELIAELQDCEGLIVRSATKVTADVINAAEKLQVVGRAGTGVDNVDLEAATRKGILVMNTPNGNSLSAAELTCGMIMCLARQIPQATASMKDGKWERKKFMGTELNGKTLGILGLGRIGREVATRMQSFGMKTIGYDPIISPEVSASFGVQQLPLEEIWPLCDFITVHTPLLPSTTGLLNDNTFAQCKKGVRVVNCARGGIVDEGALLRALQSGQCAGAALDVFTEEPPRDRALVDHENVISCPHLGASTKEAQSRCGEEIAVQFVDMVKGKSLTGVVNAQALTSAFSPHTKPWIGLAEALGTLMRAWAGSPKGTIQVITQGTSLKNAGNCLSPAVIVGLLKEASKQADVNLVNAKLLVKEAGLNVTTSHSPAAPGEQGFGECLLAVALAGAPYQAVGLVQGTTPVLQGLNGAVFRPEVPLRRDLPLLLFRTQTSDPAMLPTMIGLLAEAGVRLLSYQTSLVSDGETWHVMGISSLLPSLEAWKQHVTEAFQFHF

[2] = target: T2, D-3-phosphoglycerate dehydrogenase (Homo sapiens, UniProt O43175)
T2 sequence (O43175 whole entry): T1 sequence (whole entry)

[3] = target: T2, D-3-phosphoglycerate dehydrogenase; test: Inhibition of PHGDH (unknown origin)
[4] = Half life in rat liver microsomes at 1 uM at 37 degC in presence of NADPH regeneration system incubated for 15 mins by LC-MS/MS analysis; format: ADME, microsome
[5] = Aqueous solubility of the compound; format: physicochemical

SMILES: Cc1cc(C)nc(NC(=S)N2CCN(Cc3ccccc3C)CC2)c1
inhibition [1]: 85%
IC50 [2]: 9.2 µM

SMILES: Cc1cc(C)nc(NC(=S)N2CCN(Cc3ccc(C(F)(F)F)cc3)CC2)c1
inhibition [1]: 96%

SMILES: COc1cccc(CN2CCN(C(=S)Nc3cc(C)cc(C)n3)CC2)c1
inhibition [1]: 94%
IC50 [2]: 30 µM

SMILES: Cc1ccnc(C(=S)N2CCN(c3cccc(C(F)(F)F)c3)CC2)c1
Imax [1]: 9%

SMILES: Cc1cc(C)nc(NC(=S)N(C)CCN(C)Cc2ccc(C(F)(F)F)cc2)c1
inhibition [1]: 84%
IC50 [2]: 7.3 µM

SMILES: Cc1ccnc(N(C)C(=S)N2CCN(c3cccc(C(F)(F)F)c3)CC2)c1
Imax [1]: 38%

SMILES: Cc1cc(C)nc(NC(=S)N2CCN(C(=O)c3ccc(C(F)(F)F)cc3)CC2)c1
inhibition [1]: 85%
IC50 [2]: 19 µM

SMILES: Cc1cc(C)nc(NC(=S)N2CCC(NC(=O)c3cccc(C(F)(F)F)c3)CC2)c1
inhibition [1]: 94%
IC50 [2]: 11 µM

SMILES: Cc1cc(C)nc(NC(=S)N2CCN(Cc3ccc(C(F)(F)F)cc3)C(CO)C2)c1 (configuration not stated)
inhibition [1]: 89%
IC50 [2]: 5.8 µM

SMILES: Cc1cc(C)nc(NC(=S)N2CCN(Cc3ccccc3Cl)CC2)c1
inhibition [1]: 106%
IC50 [2]: 20 µM

SMILES: Cc1cc(C)nc(NC(=S)N2CCN(Cc3cccc(Cl)c3)CC2)c1
inhibition [1]: 90%
IC50 [2]: 11 µM

SMILES: Cc1cc(C)nc(NC(=S)N2CCN(Cc3cccc(F)c3)CC2)c1
inhibition [1]: 88%
IC50 [2]: 39 µM

SMILES: COC(=O)c1ccnc(NC(=S)N2CCN(c3cccc(C(F)(F)F)c3)CC2)c1
inhibition [1]: 73%
IC50 [2]: 13 µM

SMILES: FC(F)(F)c1cccc(N2CCN(C(=S)Nc3cccnc3)CC2)c1
inhibition [1]: 67%
IC50 [2]: 8.9 µM

SMILES: Cc1cc(C)nc(NC(=S)N2CCN(Cc3ccc(C(F)(F)F)cc3)C(c3ccccc3)C2)c1 (configuration not stated)
inhibition [1]: 111%
IC50 [2]: 31 µM

SMILES: Cc1cc(C)nc(NC(=S)N2CCN(Cc3ccncc3)CC2)c1
inhibition [1]: 67%
IC50 [2]: 59 µM

SMILES: Cc1ccnc(NC(=N)N2CCN(c3cccc(C(F)(F)F)c3)CC2)c1
Imax [1]: 2%

SMILES: Cc1cc(C)nc(NC(=S)N2CCCC(NC(=O)c3ccc(C(F)(F)F)cc3)C2)c1 (configuration not stated)
inhibition [1]: 88%
IC50 [2]: 8.7 µM

SMILES: Cc1ccnc(NC(=S)N2CCN(c3cccc(C(F)(F)F)c3)CC2)c1
inhibition [1]: 92%

SMILES: Cc1cc(C)nc(NC(=S)N2CCCC(Nc3ccc(C(F)(F)F)cc3)C2)c1 (configuration not stated)
inhibition [1]: 85%
IC50 [2]: 5.7 µM

SMILES: Cc1cc(C)nc(NC(=S)N2CCN(Cc3ccc(C(F)(F)F)cc3)[C@@H](C)C2)c1
inhibition [1]: 86%
IC50 [2]: 9.9 µM

SMILES: COc1ccc(CN2CCN(C(=S)Nc3cc(C)cc(C)n3)CC2)cc1
inhibition [1]: 87%
IC50 [2]: 26 µM

SMILES: Cc1cc(C)nc(NC(=S)N2CCC(Nc3cccc(C(F)(F)F)c3)CC2)c1
inhibition [1]: 90%
IC50 [2]: 6.5 µM

SMILES: Cc1cc(C)nc(NC(=S)N2CCN(Cc3cccc(C(F)(F)F)c3)CC2)c1
inhibition [1]: 102%
IC50 [2]: 5.3 µM

SMILES: FC(F)(F)c1cccc(N2CCN(C(=S)Nc3ccc4ccccc4n3)CC2)c1
inhibition [1]: 90%
IC50 [2]: 10 µM

SMILES: Cc1cc(C)nc(NC(=S)N2CCC(NCc3ccc(C(F)(F)F)cc3)CC2)c1
inhibition [1]: 93%
IC50 [2]: 15 µM

SMILES: COc1ccc(N2CCN(C(=S)Nc3cc(C)cc(C)n3)CC2)cc1
inhibition [1]: 99%
IC50 [2]: 16 µM

SMILES: Cc1cc(C)nc(NC(=S)NCCN(C)Cc2ccc(C(F)(F)F)cc2)c1
inhibition [1]: 66%
IC50 [2]: 21 µM

SMILES: Cc1cc(C)nc(NC(=S)NCCNCc2ccc(C(F)(F)F)cc2)c1
inhibition [1]: 41%
IC50 [2]: 9.7 µM

SMILES: Cc1cc(C)nc(NC(=S)N2CCCC(Nc3cccc(C(F)(F)F)c3)C2)c1 (configuration not stated)
inhibition [1]: 84%
IC50 [2]: 7.2 µM

SMILES: Cc1cc(C)nc(NC(=S)N2CCN(c3ccc(C(F)(F)F)cc3)CC2)c1
inhibition [1]: 98%
IC50 [2]: 4.3 µM

SMILES: Cc1cc(C)nc(NC(=S)N2CCN(Cc3ccc(C(F)(F)F)cc3)[C@H](C)C2)c1
inhibition [1]: 94%
IC50 [2]: 12 µM

SMILES: Cc1cc(C)nc(NC(=S)N2CCN(Cc3ccc(Cl)cc3)CC2)c1
inhibition [1]: 97%
IC50 [2]: 15 µM

SMILES: Cc1ccnc(CC(=S)N2CCN(c3cccc(C(F)(F)F)c3)CC2)c1
Imax [1]: 37%

SMILES: FC(F)(F)c1cccc(N2CCN(C(=S)Nc3cc(C(F)(F)F)ccn3)CC2)c1
inhibition [1]: 61%
IC50 [2]: 6.4 µM

SMILES: Cc1cc(C)nc(NC(=S)N2CCN(Cc3ccc(F)cc3)CC2)c1
inhibition [1]: 86%
IC50 [2]: 38 µM

SMILES: Cc1cc(C)nc(NC(=S)N2CCN(c3cccc(C(F)(F)F)n3)CC2)c1
inhibition [1]: 100%
IC50 [2]: 11 µM

IC50 [3]: 35.7 µM
SMILES: CCNC(=S)N/N=C/c1ccc(-c2ccc(C(=O)O)c(Cl)c2)o1

SMILES: FC(F)(F)c1cccc(N2CCN(C(=S)Nc3ccncc3)CC2)c1
inhibition [1]: 55%
IC50 [2]: 14 µM

SMILES: Cc1cc(C)nc(NC(=S)N2C[C@@H](C)N(Cc3ccc(C(F)(F)F)cc3)[C@@H](C)C2)c1
Imax [1]: 16%

SMILES: FC(F)(F)c1cccc(N2CCN(C(=S)Nc3ccccn3)CC2)c1
inhibition [1]: 93%
t1/2 [4]: 16 min
IC50 [2]: 6.8 µM

SMILES: Cc1cc(NC(=S)N2CCN(c3cccc(C(F)(F)F)c3)CC2)nc2ccccc12
inhibition [1]: 119%
IC50 [2]: 21 µM

SMILES: Cc1ccnc(NC(=O)N2CCN(c3cccc(C(F)(F)F)c3)CC2)c1
Imax [1]: 16%

SMILES: Cc1cc(C)nc(NC(=S)N2CCN(c3ccccc3C(F)(F)F)CC2)c1
inhibition [1]: 101%
IC50 [2]: 8.7 µM

SMILES: Cc1cc(C)nc(NC(=S)N2CCN(c3ccc(C(F)(F)F)cn3)CC2)c1
inhibition [1]: 96%

SMILES: Cc1cc(C)nc(NC(=S)N2CCN(Cc3ccc(OC(F)(F)F)cc3)CC2)c1
inhibition [1]: 96%
IC50 [2]: 11 µM

SMILES: Cc1cc(C)nc(NC(=S)N2CCN(C(=O)c3cccc(C(F)(F)F)c3)CC2)c1
inhibition [1]: 101%
IC50 [2]: 22 µM

SMILES: Cc1cc(C)nc(NC(=S)N2CCC(NC(=O)c3ccc(C(F)(F)F)cc3)CC2)c1
inhibition [1]: 90%
IC50 [2]: 10 µM

SMILES: Cc1cc(C)nc(NC(=S)N2CCCN(Cc3ccc(C(F)(F)F)cc3)CC2)c1
inhibition [1]: 82%
IC50 [2]: 7.3 µM

SMILES: Cc1cc(C)nc(NC(=S)N2CCN(CCc3ccc(C(F)(F)F)cc3)CC2)c1
inhibition [1]: 87%
IC50 [2]: 23 µM

SMILES: Cc1cccc(NC(=S)N2CCN(c3cccc(C(F)(F)F)c3)CC2)c1
Imax [1]: 20%

SMILES: Cc1cc(C)nc(NC(=S)N2CCN(Cc3ccccc3C(F)(F)F)CC2)c1
inhibition [1]: 92%
IC50 [2]: 6.3 µM

SMILES: Cc1ccnc(NC(=S)N2CCN(c3cccc(C(F)(F)F)c3)CC2)n1
inhibition [1]: 111%
IC50 [2]: 37 µM

SMILES: Cc1cc(C)nc(NC(=S)N2CCN(c3cccnc3)CC2)c1
inhibition [1]: 68%
IC50 [2]: 50 µM

SMILES: Cc1cc(C)nc(NC(=S)N2CCN(Cc3ccccc3F)CC2)c1
inhibition [1]: 56%
IC50 [2]: 41 µM

SMILES: Cc1cc(C)nc(NC(=S)N2CCCC(NCc3ccc(C(F)(F)F)cc3)C2)c1 (configuration not stated)
inhibition [1]: 89%
IC50 [2]: 12 µM

SMILES: Cc1cc(C)nc(NC(=S)N2CCC(Nc3ccc(C(F)(F)F)cc3)CC2)c1
inhibition [1]: 97%
IC50 [2]: 7.7 µM

SMILES: Cc1cc(C)nc(NC(=S)N2CCN(Cc3ccc(C(F)(F)F)cc3)C(C(=O)O)C2)c1 (configuration not stated)
inhibition [1]: 93%
IC50 [2]: 33 µM

SMILES: Cc1cc(C)nc(NC(=S)N2CCN(Cc3cccnc3)CC2)c1
Imax [1]: 34%

SMILES: Cc1cc(C)nc(NC(=S)N2CCN(Cc3ccccc3)CC2)c1
inhibition [1]: 78%
IC50 [2]: 40 µM

SMILES: Cc1cc(C)nc(NC(=S)N2CCN(c3cccc(C(F)(F)F)c3)CC2)c1
inhibition [1]: 92%
t1/2 [4]: > 30 min
IC50 [2]: 6.3 µM

SMILES: Cc1cc(C)nc(NC(=S)N2CCCC(NC(=O)c3cccc(C(F)(F)F)c3)C2)c1 (configuration not stated)
inhibition [1]: 91%
IC50 [2]: 10 µM

SMILES: Cc1cc(C)nc(NC(=S)N2CCN(c3ccccn3)CC2)c1
inhibition [1]: 73%
IC50 [2]: 37 µM

SMILES: Cc1cccc(CN2CCN(C(=S)Nc3cc(C)cc(C)n3)CC2)c1
inhibition [1]: 92%
IC50 [2]: 20 µM

SMILES: COc1ccccc1N1CCN(C(=S)Nc2cc(C)cc(C)n2)CC1
inhibition [1]: 109%
IC50 [2]: 24 µM

SMILES: COc1ccccc1CN1CCN(C(=S)Nc2cc(C)cc(C)n2)CC1
Imax [1]: 21%

SMILES: Cc1cc(C)nc(NC(=S)N2CC3CN(Cc4ccc(C(F)(F)F)cc4)CC3C2)c1 (configuration not stated)
inhibition [1]: 93%
IC50 [2]: 16 µM

SMILES: Cc1cc(C)nc(NC(=S)N2CCN(c3ccncc3)CC2)c1
Imax [1]: 33%
solubility [5]: > 48 µM

SMILES: Cc1ccc(CN2CCN(C(=S)Nc3cc(C)cc(C)n3)CC2)cc1
inhibition [1]: 93%
IC50 [2]: 17 µM

SMILES: Cc1cc(C)nc(NC(=S)N2CCN(Cc3ccccn3)CC2)c1
inhibition [1]: 51%
IC50 [2]: 50 µM

SMILES: Cc1cc(C)nc(NC(=S)N2CCN(Cc3ccc(C(F)(F)F)cc3)C(C)C2)c1 (configuration not stated)
inhibition [1]: 99%
IC50 [2]: 8.3 µM

SMILES: Cc1cc(C)nc(NC(=S)N2CCN(Cc3ccc(Br)cc3)CC2)c1
inhibition [1]: 92%
IC50 [2]: 17 µM

SMILES: Cc1cc(C)nc(NC(=S)N2CCN(C(C)c3ccc(C(F)(F)F)cc3)CC2)c1 (configuration not stated)
inhibition [1]: 90%
IC50 [2]: 8 µM

SMILES: COc1cccc(N2CCN(C(=S)Nc3cc(C)cc(C)n3)CC2)c1
inhibition [1]: 101%
IC50 [2]: 14 µM
